“Also recorded” adds a separate entry of the source.
Key:
[1] = Dye displacement (competitive-binding) assay between P[5]a host and HSL guests; conditions: HSL guest titrated against P[5]a host with bound fluorescent dye
Excerpt: The addition of a HSL “[…]” displaces the […] from the cavity again, resulting in a shift back to 468 nm.
To measure the binding affinity between the macrocyclic “Host” P[5]a and different homoserine lactone “guests” a competitive-binding assay was used. In this case, a “guest” HSL solution is titrated against a solution of the P[5]a “host”, which has a fluorescent dye bound in its cavity, […], which has a known affinity for the P[5]a. The ratio of P[5]a to HSL enables calculation of the affinity.

[2] = test system: MDR-Acinetobacter baumannii 5542; test: Resistance profile of strain (Table 3); type: cell-based; conditions: strain 5542 A. baumannii
[3] = test system: Pseudomonas aeruginosa 2798 (ATCC 2798); test: Resistance profile of strain (Table 3); type: cell-based; conditions: strain 2798 (ATCC 2798)
Excerpt: (§1) The effect of P[5]a on the penetration and efficacy of coadministered antibiotics Amikacin (a), Cefepime (b), Ceftazidime (c) and Meropenem (d) in MDR resistant clinical isolates were studied.

[4] = test system: Pseudomonas aeruginosa 5834; test: Resistance profile of strain (Table 3); type: cell-based; conditions: strain 5834
Excerpt: as §1

[5] = test system: Pseudomonas aeruginosa 5550; test: Resistance profile of strain (Table 3); type: cell-based; conditions: strain 5550
Excerpt: as §1

[6] = test system: Pseudomonas aeruginosa 5542; test: Resistance profile of strain (Table 3); type: cell-based; conditions: strain 5542 P. aeruginosa
Excerpt: as §1

[7] = test system: Pseudomonas aeruginosa 5832; test: Resistance profile of strain (Table 3); type: cell-based; conditions: strain 5832
Excerpt: as §1

[8] = test system: Pseudomonas aeruginosa 5539; test: Resistance profile of strain (Table 3); type: cell-based; conditions: strain 5539
[9] = test system: Pseudomonas aeruginosa 5827; test: Resistance profile of strain (Table 3); type: cell-based; conditions: strain 5827
P. aeruginosa PAO1 = test: Antibiotic resistance buildup, daily MIC over 14 consecutive days; type: cell-based, Pseudomonas aeruginosa; conditions: coadministration of P[5]a with the antibiotic, 14-day period
Excerpt: Area below the yellow line means that the bacterium is classified as susceptible to the antibiotic. The area in between yellow and red means that the bacterium is intermediate susceptible to the antibiotic. The area above the red line means that the bacterium is classified as resistant to the antibiotic (According to the “Performance Standards for Antimicrobial Susceptibility Testing”, which is maintained by the Clinical and Laboratory Standards Institute).
Because of this, a combined administration of P[5]a with a variety of antibiotics was tested. MIC values with two different antibiotics, meropenem and cefepime (FIG. 2) were tested, over a period of 14 consecutive days (which more than surpasses the length of normal treatments, 7-10 days), when administered together with and without 2.5 mM P[5]a.
In this experiment, the minimum inhibitory concentration MIC was analyzed daily for 14 consecutive days, and the highest MIC values (so the highest concentration of antibiotic where the bacteria still grew) was used for the next day. This way, the buildup of resistance over time can be monitored. In FIG. 2, the area below the yellow line means that the bacterium is classified as susceptible to the antibiotic, the area in between yellow and red means that the bacterium is intermediate susceptible to the antibiotic and the area above the red line means that the bacterium is classified as resistant to the antibiotic (According to the “Performance Standards for Antimicrobial Susceptibility Testing”, which is maintained by the Clinical and Laboratory Standards Institute).
The effect of P[5]a on encountering resistance development in a pathogenic Gram-negative bacterium, Pserudomonas aeruginosa, strain PA01 was studied over 14-day period. The development of resistance over 14 continuous days by the pathogen PAO1 towards treatment with four clinically relevant antibiotics (meropenem, cefepime, aztreonam and tobramycin) and P[5]a was compared. […] In all antibiotic treatments, reduced susceptibility was observed from day 4 onwards, with complete resistance to all treatments after 12 days.
The effect of P[5]a on the enhancement of the penetration of coadministered antibiotics having intracellular targets (aztreonam, cefepime, meropenem and tobramycin) was studied over 14-day period in a pathogenic Gram-negative bacterium, Pserudomonas aeruginosa, strain PA01. […] MIC values were categorized in three groups according to the Clinical and Laboratory Standards Institute: susceptible, intermediate susceptible and resistant.

For CCCCCCCCCCCC(O)CC(=O)N[C@@H]1CCOC1=O (stereo partly shown) [3-OH—C14 HSL], the “displacement of dye from P[5]a cavity (binding affinity)” value (“displacement of dye from P[5]a cavity” for short) [1] was “high binding affinity; also recorded: strong displacement”.

In the case of CCCC(=O)CC(=O)N[C@H]1CCOC1=O [3-Oxo-C6], the “displacement of dye from P[5]a cavity” value [1] is reported as “Poor displacement”.

For CCCCCC(=O)CC(=O)N[C@H]1CCOC1=O [3-Oxo-C8 HSL], the “displacement of dye from P[5]a cavity” value [1] was “Medium displacement”.

With CCCCCCCCCC(=O)CC(=O)NC1CCOC1=O (stereo not shown) [3-Oxo-C12 HSL] the “displacement of dye from P[5]a cavity” value [1] was “high binding affinity; also recorded: strong displacement”.

With CC1(C)S[C@@H]2[C@H](NC(=O)[C@H](N)c3ccccc3)C(=O)N2[C@H]1C(=O)O [Ampicillin] the “Antibiotic resistance (category)” value [2] was “Resistant to Amikacin, Amoxicillin-clavulanate, Ampicillin,”.

For CC[C@H]1OC(=O)[C@H](C)[C@@H](O[C@H]2C[C@@](C)(OC)[C@@H](O)[C@H](C)O2)[C@H](C)[C@@H](O[C@@H]2O[C@H](C)C[C@H](N(C)C)[C@H]2O)[C@](C)(O)C[C@@H](C)CN(C)[C@H](C)[C@@H](O)[C@]1(C)O [Azithromycin, azithromycin], the “Antibiotic resistance (category)” value [2] was “Resistant to Amikacin, Amoxicillin-clavulanate, Ampicillin,”.

In the case of CCCC(=O)N[C@H]1CCOC1=O [C4], the “displacement of dye from P[5]a cavity” value [1] is reported as “Poor displacement”.

With CC1=C(C(=O)O)N2C(=O)[C@@H](NC(=O)[C@H](N)c3ccccc3)[C@H]2SC1 [Cefalexin] the “Antibiotic resistance (category)” value [2] was “Resistant to Amikacin, Amoxicillin-clavulanate, Ampicillin,”.

With C[C@@H](O)[C@H]1C(=O)N2C(C(=O)O)=C(S[C@@H]3CN[C@H](CNS(N)(=O)=O)C3)[C@H](C)[C@H]12 [Doripenem, doripenem] the “Antibiotic resistance (category)” value [3] was “Aztreonam & Cefepime, Resistant to Ceftazidime, Cirpofloxacin,”.

In the case of C[C@@H](O)[C@H]1C(=O)N2C(C(=O)O)=C(S[C@@H]3CN[C@H](C(=O)Nc4cccc(C(=O)O)c4)C3)[C@H](C)[C@H]12 [Ertapenem, ertapenem], the “Antibiotic resistance (category)” value [2] is reported as “Resistant to Amikacin, Amoxicillin-clavulanate, Ampicillin,”.

For Cc1cc(NS(=O)(=O)c2ccc(N)cc2)no1 [Sulfamethoxazole], the “Antibiotic resistance (category)” value [2] was “Resistant to Amikacin, Amoxicillin-clavulanate, Ampicillin,”.

In the case of CN(C)c1cc(NC(=O)CNC(C)(C)C)c(O)c2c1C[C@H]1C[C@H]3[C@H](N(C)C)C(O)=C(C(N)=O)C(=O)[C@@]3(O)C(O)=C1C2=O [Tigecycline], the “Antibiotic resistance (category)” value [2] is reported as “Resistant to Amikacin, Amoxicillin-clavulanate, Ampicillin,”.

With NCC[C@H](O)C(=O)N[C@@H]1C[C@H](N)[C@@H](O[C@H]2O[C@H](CN)[C@@H](O)[C@H](O)[C@H]2O)[C@H](O)[C@H]1O[C@H]1O[C@H](CO)[C@@H](O)[C@H](N)[C@H]1O [amikacin, Amikacin] the “Antibiotic resistance (category)” value [4] was “intermediate susceptible”, the “Antibiotic resistance (value given with the category, MIC)” value [4] was 16 µg and the “Antibiotic resistance (category)” value [5] was “Intermediate susceptible”. For the same molecule, the “Antibiotic resistance (value given with the category, MIC)” value [5] was 32 µg, the “Antibiotic resistance (category)” value [6] was “intermediate susceptible” and the “Antibiotic resistance (value given with the category, MIC)” value [6] was 16 µg. The “Antibiotic resistance (category)” value [3] was “Susceptible”, the “Antibiotic resistance (category)” value [7] was “Intermediate susceptible” and the “Antibiotic resistance (value given with the category, MIC)” value [7] was 16 µg. For the same molecule, the “Antibiotic resistance (category)” value [8] was “Susceptible”, the “Antibiotic resistance (value given with the category, MIC)” value [8] was 8 µg and the “Antibiotic resistance (category)” value [2] was “Resistant to Amikacin, Amoxicillin-clavulanate, Ampicillin,”. The “Antibiotic resistance (category)” value [9] was “Intermediate susceptible” and the “Antibiotic resistance (value given with the category, MIC)” value [9] was 32 µg.

With C[C@H]1[C@H](NC(=O)/C(=N\OC(C)(C)C(=O)O)c2csc(N)n2)C(=O)N1S(=O)(=O)O [aztreonam] the “Antibiotic resistance (category)” value [3] was “Intermediate susceptible” and the “development of resistance by the pathogen to the respective antibiotic” value (“development of resistance” below) (P. aeruginosa PAO1) was “greatly slowed”.

With CO/N=C(\C(=O)N[C@@H]1C(=O)N2C(C(=O)O)=C(COC(N)=O)CS[C@H]12)c1ccco1 [cefurixome] the “Antibiotic resistance (category)” value [8] was “resistant”.

With C[C@@H](O)[C@H]1C(=O)N2C(C(=O)O)=C(S[C@@H]3CN[C@H](C(=O)N(C)C)C3)[C@H](C)[C@H]12 [meropenem, Meropenem] the “Antibiotic resistance (category)” value [4] was “resistant”, the “Antibiotic resistance (value given with the category, MIC)” value [4] was “cefepime 64 ug, ceftazidime 64 ug and meropenem 64 ug” and the “Antibiotic resistance (category)” value [5] was “resistant”. The “Antibiotic resistance (value given with the category, MIC)” value [5] was 8 µg, the “Antibiotic resistance (category)” value [6] was “resistant” and the “Antibiotic resistance (value given with the category, MIC)” value [6] was 8 µg. The “Antibiotic resistance (category)” value [3] was “Aztreonam & Cefepime, Resistant to Ceftazidime, Cirpofloxacin,”, the “Antibiotic resistance (category)” value [7] was “resistant” and the “Antibiotic resistance (value given with the category, MIC)” value [7] was 8 µg. For the same molecule, the “development of resistance” value (P. aeruginosa PAO1) was “greatly slowed”, the “Antibiotic resistance (category)” value [8] was “resistant” and the “Antibiotic resistance (value given with the category, MIC)” value [8] was 8 µg. For the same molecule, the “Antibiotic resistance (category)” value [2] was “Resistant to Amikacin, Amoxicillin-clavulanate, Ampicillin,”, the “Antibiotic resistance (category)” value [9] was “resistant” and the “Antibiotic resistance (value given with the category, MIC)” value [9] was 16 µg.

In the case of NC[C@H]1O[C@H](O[C@H]2[C@H](O)[C@@H](O[C@H]3O[C@H](CO)[C@@H](O)[C@H](N)[C@H]3O)[C@H](N)C[C@@H]2N)[C@H](N)C[C@@H]1O [tobramycin], the “development of resistance” value (P. aeruginosa PAO1) is reported as “greatly slowed”, the “Antibiotic resistance (category)” value [8] is reported as “resistant” and the “Antibiotic resistance (category)” value [2] is reported as “Resistant to Amikacin, Amoxicillin-clavulanate, Ampicillin,”.

For Amoxicillin-clavulanate, the “Antibiotic resistance (category)” value [2] was “Resistant to Amikacin, Amoxicillin-clavulanate, Ampicillin,”.

In the case of Colistin, the “Antibiotic resistance (category)” value [3] is reported as “Susceptible”.

With Piperacillin-tazobactam the “Antibiotic resistance (category)” value [3] was “Aztreonam & Cefepime, Resistant to Ceftazidime, Cirpofloxacin,”, the “Antibiotic resistance (category)” value [8] was “resistant” and the “Antibiotic resistance (category)” value [2] was “Resistant to Amikacin, Amoxicillin-clavulanate, Ampicillin,”.

— patent US20230145342A1, “COMBINATORY TREATMENT” (AALTO UNIVERSITY FOUNDATION SR, priority 2020, published 2023)
